Source: patent US8367658B2, “Pyrazin-2-yl-pyridin-2-yl-amine and pyrazin-2-yl-pyrimidin-4-yl-amine compounds and their use” (Cancer Research Technology Limited, priority 2007, dated 2013)

Molecular target: T1, CHK1 (Homo sapiens, UniProt O14757)
T1 sequence (O14757 1-476): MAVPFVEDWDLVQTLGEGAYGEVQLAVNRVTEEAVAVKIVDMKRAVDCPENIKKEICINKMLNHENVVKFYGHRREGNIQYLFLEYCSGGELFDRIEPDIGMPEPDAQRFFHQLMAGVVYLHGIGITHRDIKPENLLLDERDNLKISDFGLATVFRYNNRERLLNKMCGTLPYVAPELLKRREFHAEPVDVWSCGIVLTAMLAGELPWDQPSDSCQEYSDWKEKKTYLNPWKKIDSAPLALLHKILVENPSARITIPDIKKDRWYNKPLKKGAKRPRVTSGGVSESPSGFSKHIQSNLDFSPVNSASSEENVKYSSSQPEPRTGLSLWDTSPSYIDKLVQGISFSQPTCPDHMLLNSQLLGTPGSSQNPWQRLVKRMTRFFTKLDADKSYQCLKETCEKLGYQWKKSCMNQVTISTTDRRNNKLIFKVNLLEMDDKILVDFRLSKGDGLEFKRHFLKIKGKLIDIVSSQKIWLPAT
Test: CHK1 kinase function inhibition assay (DELFIA, phosphorylation of a CDC25C peptide)
Assay type: biochemical
Conditions: CHK1 1 nM, ATP 30 μM, 30 minutes at room temperature
Protocol: Measurement of Inhibition of CHK1 Kinase Function
CHK1 kinase function was measured in a DELFIA® assay in order to monitor phosphorylation of a CDC25C peptide using a specific phospho antibody.
The reaction mixture was incubated for 30 minutes at room temperature and then stopped by the addition of buffer (125 μL) containing 40 mM EDTA, 0.05% Tween 20, 0.1% BSA in TBS (10× concentrate, Sigma). An aliquot (100 μL) of the stopped reaction mixture was transferred to a black neutravidin-coated plate (Perbio) and incubated for 1 hour on a shaker (Titertek, Flow Laboratories) at room temperature. […] The plates were washed a further four times with wash buffer before the addition of enhancement solution (100 μL/well, PerkinElmer Life Sciences).

Structure (SMILES)	IC50 [nM]
N#Cc1cnc(Nc2cc(NCC3CCNCC3)c(C(=O)N3CCCC3)cn2)cn1 [Compound Y-087, 5-(4-(Piperidin-4-ylmethylamino)-5-(pyrrolidine-1-carbonyl)pyridin-2-ylamino)pyrazine-2-carbonitrile]	≤ 100
N#Cc1cnc(Nc2cc(NCC3CCNCC3)c(C(=O)N3CCOCC3)cn2)cn1 [Compound Y-089, 5-(5-(Morpholine-4-carbonyl)-4-(piperidin-4-ylmethylamino)pyridin-2-ylamino)pyrazine-2-carbonitrile]	1000 to 10000
COCCN(C)C(=O)c1cnc(Nc2cnc(C#N)cn2)cc1NCC1CCNCC1 [Compound Y-091, 6-(5-Cyanopyrazin-2-ylamino)-N-(2-methoxyethyl)-N-methyl-4-(piperidin-4-ylmethylamino)nicotinamide]	100 to 1000
N#Cc1cnc(Nc2cc(NCC3CCNCC3)c(C(=O)Nc3ccc(F)cc3)cn2)cn1 [Compound Y-092, 6-(5-Cyanopyrazin-2-ylamino)-N-(4-fluorophenyl)-4-(piperidin-4-ylmethylamino)nicotinamide]	100 to 1000
N#Cc1cnc(Nc2cc(NCC3CCNCC3)c(C(=O)Nc3ccccc3F)cn2)cn1 [Compound Y-093, 6-(5-Cyanopyrazin-2-ylamino)-N-(2-fluorophenyl)-4-(piperidin-4-ylmethylamino)nicotinamide]	100 to 1000
N#Cc1cnc(Nc2cc(NCC3CCNCC3)c(C(=O)Nc3cccc(F)c3)cn2)cn1 [Compound Y-094, 6-(5-Cyanopyrazin-2-ylamino)-N-(3-fluorophenyl)-4-(piperidin-4-ylmethylamino)nicotinamide]	100 to 1000
COc1ccc(NC(=O)c2cnc(Nc3cnc(C#N)cn3)cc2NCC2CCNCC2)cc1 [Compound Y-095, 6-(5-Cyanopyrazin-2-ylamino)-N-(4-methoxyphenyl)-4-(piperidin-4-ylmethylamino)nicotinamide]	≤ 100
COc1cccc(NC(=O)c2cnc(Nc3cnc(C#N)cn3)cc2NCC2CCNCC2)c1 [Compound Y-096, 6-(5-Cyanopyrazin-2-ylamino)-N-(3-methoxyphenyl)-4-(piperidin-4-ylmethylamino)nicotinamide]	≤ 100
COc1ccccc1NC(=O)c1cnc(Nc2cnc(C#N)cn2)cc1NCC1CCNCC1 [Compound Y-097, 6-(5-Cyanopyrazin-2-ylamino)-N-(2-methoxyphenyl)-4-(piperidin-4-ylmethylamino)nicotinamide]	100 to 1000
N#Cc1cnc(Nc2cc(NCC3CCNCC3)c(C(=O)Nc3ccc(OCCN4CCOCC4)cc3)cn2)cn1 [Compound Y-098, 6-(5-Cyanopyrazin-2-ylamino)-N-(4-(2-morpholinoethoxy)phenyl)-4-(piperidin-4-ylmethylamino)nicotinamide]	≤ 100
N#Cc1cnc(Nc2cc(NCC3CCNCC3)c(C(=O)Nc3cccc(N4CCOCC4)c3)cn2)cn1 [Compound Y-099, 6-(5-Cyanopyrazin-2-ylamino)-N-(3-morpholinophenyl)-4-(piperidin-4-ylmethylamino)nicotinamide]	≤ 100
N#Cc1cnc(Nc2cc(NCC3CCNCC3)c(C(=O)Nc3ccc(N4CCOCC4)cc3)cn2)cn1 [Compound Y-100, 6-(5-Cyanopyrazin-2-ylamino)-N-(4-morpholinophenyl)-4-(piperidin-4-ylmethylamino)nicotinamide]	≤ 100
N#Cc1cnc(Nc2cc(NCC3CCNCC3)c(C(N)=O)cn2)cn1 [Compound Y-101, 6-(5-Cyanopyrazin-2-ylamino)-4-(piperidin-4-ylmethylamino)nicotinamide]	100 to 1000
N#Cc1cnc(Nc2cc(NCC3CNCCO3)c(C(=O)Nc3ccccc3)cn2)cn1 (stereo not shown) [Compound Y-102, 6-(5-Cyanopyrazin-2-ylamino)-4-(morpholin-2-ylmethylamino)-N-phenylnicotinamide]	≤ 100
COC(=O)c1cnc(Nc2cnc(OC)cn2)cc1NCC1CNCCO1 (stereo not shown) [Compound Y-106, Methyl 6-(5-methoxypyrazin-2-ylamino)-4-(morpholin-2-ylmethylamino)nicotinate]	100 to 1000
CN1CCC(N(C)c2cc(Nc3cnc(C#N)cn3)ncc2Cl)CC1 [Compound Y-109, 5-(5-Chloro-4-(methyl(1-methylpiperidin-4-yl)amino)pyridin-2-ylamino)pyrazine-2-carbonitrile]	100 to 1000
CN1CCC(N(C)c2cc(Nc3cnc(C#N)cn3)ncc2-c2ccccc2)CC1 [Compound Y-113, 5-(4-(methyl(1-methylpiperidin-4-yl)amino)-5-phenylpyridin-2-ylamino)pyrazine-2-carbonitrile]	100 to 1000

Results, then the compound that gave them:

IC50 [nM]	Structure (SMILES)
≤ 100	CCNC(=O)c1cnc(Nc2cnc(C#N)cn2)cc1NC1CCN(C)CC1 [Compound Y-085, 6-(5-Cyanopyrazin-2-ylamino)-N-ethyl-4-(1-methylpiperidin-4-ylamino)nicotinamide]
≤ 100	CC(C)NC(=O)c1cnc(Nc2cnc(C#N)cn2)cc1NCC1CCNCC1 [Compound Y-086, 6-(5-Cyanopyrazin-2-ylamino)-N-isopropyl-4-(piperidin-4-ylmethylamino)nicotinamide]
100 to 1000	N#Cc1cnc(Nc2cc(NCC3CCNCC3)c(C(=O)NCCO)cn2)cn1 [Compound Y-088, 6-(5-Cyanopyrazin-2-ylamino)-N-(2-hydroxyethyl)-4-(piperidin-4-ylmethylamino)nicotinamide]
≤ 100	CN1CCC(Nc2cc(Nc3cnc(C#N)cn3)ncc2C(=O)Nc2ccccc2)CC1 [Compound Y-103, 6-(5-Cyanopyrazin-2-ylamino)-4-(1-methylpiperidin-4-ylamino)-N-phenylnicotinamide]
1000 to 10000	CN1CCC(Nc2cc(Nc3cnc(C#N)cn3)ncc2C(=O)O)CC1 [Compound Y-104, 6-(5-Cyanopyrazin-2-ylamino)-4-(1-methylpiperidin-4-ylamino)nicotinic acid]
≤ 100	COC(=O)c1cnc(Nc2cnc(C)cn2)cc1NC1CCN(C)CC1 [Compound Y-105, methyl 4-(1-methylpiperidin-4-ylamino)-6-(5-methylpyrazin-2-ylamino)nicotinate]
≤ 100	CN1CCC(Nc2cc(Nc3cnc(C#N)cn3)ncc2Cl)CC1 [Compound Y-108, 5-(5-Chloro-4-(1-methylpiperidin-4-ylamino)pyridin-2-ylamino)pyrazine-2-carbonitrile]
≤ 100	CN1CCC(Nc2cc(Nc3cnc(C#N)cn3)ncc2Br)CC1 [Compound Y-110, 5-(5-Bromo-4-(1-methylpiperidin-4-ylamino)pyridin-2-ylamino)pyrazine-2-carbonitrile]
≤ 100	CN1CCC(Nc2cc(Nc3cnc(C#N)cn3)ncc2-c2ccccc2)CC1 [Compound Y-111, 5-(4-(1-Methylpiperidin-4-ylamino)-5-phenylpyridin-2-ylamino)pyrazine-2-carbonitrile]
≤ 100	CN1CCC(Nc2cc(Nc3cnc(C#N)cn3)ncc2-c2ccsc2)CC1 [Compound Y-112, 5-(4-(1-methylpiperidin-4-ylamino)-5-(thiophen-3-yl)pyridin-2-ylamino)pyrazine-2-carbonitrile]
≤ 100	COc1ccc(-c2cnc(Nc3cnc(C#N)cn3)cc2NC2CCN(C)CC2)cc1 [Compound Y-114, 5-(5-(4-methoxyphenyl)-4-(1-methylpiperidin-4-ylamino)pyridin-2-ylamino)pyrazine-2-carbonitrile]
